Measurements: patent US9469650B2, “Melampomagnolide B derivatives” (BOARD OF TRUSTEES OF THE UNIVERSITY OF ARKANSAS, priority 2013, dated 2016)

Legend:
MDA-MB-435 = experiment: panel of 60 human tumor cell lines, growth inhibition (Melanoma); settings: Homo sapiens; for GI50: MDA-MB-435; for CC50: MDA-MB-435, read-out: LC50; for IC (TGI): MDA-MB-435, read-out: TGI
SK-MEL-2 = experiment: as above; settings: Homo sapiens; for GI50: SK-MEL-2; for CC50: SK-MEL-2, read-out: LC50; for IC (TGI): SK-MEL-2, read-out: TGI
SF-539 = experiment: panel of 60 human tumor cell lines, growth inhibition (CNS Cancer); settings: Homo sapiens; for GI50: SF-539; for CC50: SF-539, read-out: LC50; for IC (TGI): SF-539, read-out: TGI
U251 = experiment: as above; settings: Homo sapiens; for GI50: U-251; for CC50: U-251, read-out: LC50; for IC (TGI): U-251, read-out: TGI
HCT-116 = experiment: panel of 60 human tumor cell lines, growth inhibition (Colon Cancer); settings: Homo sapiens; for CC50: HCT-116, read-out: LC50; for IC (TGI): HCT-116, read-out: TGI
HT29 = experiment: as above; settings: for Percent Growth: HT29; for GI50 / CC50 / IC (TGI): Homo sapiens; for GI50: HT-29; for CC50: HT-29, read-out: LC50; for IC (TGI): HT-29, read-out: TGI
KM12 = experiment: as above; settings: for GI50 / CC50: Homo sapiens; for CC50: KM12, read-out: LC50
786-0 = experiment: panel of 60 human tumor cell lines, growth inhibition (Renal Cancer); settings: Homo sapiens; for GI50: 786-0; for CC50: 786-0, read-out: LC50; for IC (TGI): 786-0, read-out: TGI
A498 = experiment: as above; settings: Homo sapiens; for GI50: A498; for CC50: A498, read-out: LC50; for IC (TGI): A498, read-out: TGI
SN12C = experiment: as above; settings: Homo sapiens; for CC50: read-out: LC50; for IC (TGI): read-out: TGI
MDA-MB-231/ATCC = experiment: panel of 60 human tumor cell lines, growth inhibition (Breast Cancer); settings: Homo sapiens; for GI50: MDA-MB-231; for CC50: MDA-MB-231, read-out: LC50; for IC (TGI): MDA-MB-231, read-out: TGI
OVCAR-5 = experiment: panel of 60 human tumor cell lines, growth inhibition (Ovarian Cancer); settings: for GI50 / CC50 / IC (TGI): Homo sapiens; for CC50: OVCAR-5, read-out: LC50; for IC (TGI): OVCAR-5, read-out: TGI
NCI/ADR-RES = experiment: as above; settings: Homo sapiens; for CC50: read-out: LC50; for IC (TGI): read-out: TGI
PC-3 = experiment: panel of 60 human tumor cell lines, growth inhibition (Prostate Cancer); settings: Homo sapiens; for GI50: PC-3; for CC50: PC-3, read-out: LC50; for IC (TGI): PC-3, read-out: TGI
DU-145 = experiment: as above; settings: Homo sapiens; for GI50: DU-145; for CC50: DU-145, read-out: LC50; for IC (TGI): DU-145, read-out: TGI
HOP-62 = experiment: panel of 60 human tumor cell lines, growth inhibition (Non-Small Cell Lung Cancer); settings: Homo sapiens; for GI50: HOP-62; for CC50: HOP-62, read-out: LC50; for IC (TGI): HOP-62, read-out: TGI
NCI-H322M = experiment: as above; settings: Homo sapiens; for CC50: read-out: LC50; for IC (TGI): read-out: TGI
NCI-H460 = experiment: as above; settings: Homo sapiens; for GI50: NCI-H460; for CC50: NCI-H460, read-out: LC50; for IC (TGI): NCI-H460, read-out: TGI

C=C1C(=O)O[C@H]2[C@H]1CC/C(COC(=O)NCCN1CCOCC1)=C\CC[C@@]1(C)O[C@@H]21 [JVM 57, ((1aR,7aS,10aS,10bS,E)-1a-methyl-8-methylene-9-oxo-1a,2,3,6,7,7a,8,9,10a,10b-decahydrooxireno[2′,3′:9,10]-cyclodeca[1,2-b]furan-5-yl)-methyl(2-morpholinoethyl)carbamate]
GI50 (MDA-MB-435): 5.89 µM
CC50 (MDA-MB-435): 66.9 µM
IC (TGI) (MDA-MB-435): 22 µM
GI50 (SK-MEL-2): 13.2 µM
CC50 (SK-MEL-2): 65.5 µM
IC (TGI) (SK-MEL-2): 29.4 µM
GI50 (SF-539): 14.4 µM
CC50 (SF-539): 55.2 µM
IC (TGI) (SF-539): 28.2 µM
GI50 (U251): 42.9 µM
CC50 (U251): > 100 µM
IC (TGI) (U251): > 100 µM
GI50 (HCT-116; HCT-116, HCT-116): 2.87 µM
GI50 (HCT-116; HCT-116, HCT-116, 5-dose assay): 2.87 µM
CC50 (HCT-116): 38.9 µM
IC (TGI) (HCT-116): 10.7 µM
Percent Growth (HT29; Log10 Concentration −4.0): −74%
Percent Growth (HT29; Log10 Concentration −5.0): 43%
Percent Growth (HT29; Log10 Concentration −6.0): 110%
Percent Growth (HT29; Log10 Concentration −7.0): 108%
Percent Growth (HT29; Log10 Concentration −8.0): 102%
GI50 (HT29): 7.83 µM
CC50 (HT29): 62.7 µM
IC (TGI) (HT29): 23.3 µM
GI50 (KM12; KM12): 26.3 µM
CC50 (KM12): > 100 µM
TGI (KM12; KM12): 7.66E−5
Percent Growth (KM12; KM12, Log10 Concentration −4.0): −12%
Percent Growth (KM12; KM12, Log10 Concentration −5.0): 95%
Percent Growth (KM12; KM12, Log10 Concentration −6.0): 100%
Percent Growth (KM12; KM12, Log10 Concentration −7.0): 106%
Percent Growth (KM12; KM12, Log10 Concentration −8.0): 102%
GI50 (786-0): 11.4 µM
CC50 (786-0): 59.4 µM
IC (TGI) (786-0): 26 µM
GI50 (A498): 19.4 µM
CC50 (A498): > 100 µM
IC (TGI) (A498): 57 µM
GI50 (SN12C): 18.8 µM
CC50 (SN12C): > 100 µM
IC (TGI) (SN12C): 55.2 µM
GI50 (MDA-MB-231/ATCC): 13.7 µM
CC50 (MDA-MB-231/ATCC): 64.3 µM
IC (TGI) (MDA-MB-231/ATCC): 29.7 µM
GI50 (OVCAR-5; OVCAR-5): 15.7 µM
CC50 (OVCAR-5): 78.5 µM
IC (TGI) (OVCAR-5): 35.2 µM
GI50 (NCI/ADR-RES): 52.3 µM
CC50 (NCI/ADR-RES): > 100 µM
IC (TGI) (NCI/ADR-RES): > 100 µM
GI50 (PC-3): 16.6 µM
CC50 (PC-3): 85.8 µM
IC (TGI) (PC-3): 37.8 µM
GI50 (DU-145): 3.74 µM
CC50 (DU-145): 37 µM
IC (TGI) (DU-145): 13.3 µM
GI50 (HOP-62): 27.4 µM
CC50 (HOP-62): > 100 µM
IC (TGI) (HOP-62): 53 µM
GI50 (NCI-H322M): 37.9 µM
CC50 (NCI-H322M): > 100 µM
IC (TGI) (NCI-H322M): > 100 µM
GI50 (NCI-H460): 27.1 µM
CC50 (NCI-H460): > 100 µM
IC (TGI) (NCI-H460): 87.3 µM

C=C1C(=O)O[C@H]2[C@H]1CC/C(COC(=O)NCCN1CCCC1)=C\CC[C@@]1(C)O[C@@H]21 [JVM 59, ((1aR,7aS,10aS,10bS,E)-1a-methyl-8-methylene-9-oxo-1a,2,3,6,7,7a,8,9,10a,10b-decahydrooxireno[2′,3′:9,10]cyclodeca[1,2-b]furan-5-yl)methyl-(2-(pyrrolidin-1-yl)ethyl)carbamate]
GI50 (MDA-MB-435): 6.56 µM
CC50 (MDA-MB-435): 53.4 µM
IC (TGI) (MDA-MB-435): 21.1 µM
GI50 (SK-MEL-2): 14 µM
CC50 (SK-MEL-2): 62.4 µM
IC (TGI) (SK-MEL-2): 29.5 µM
GI50 (SF-539): 15 µM
CC50 (SF-539): 54.1 µM
IC (TGI) (SF-539): 28.5 µM
GI50 (U251): 26.7 µM
CC50 (U251): > 100 µM
IC (TGI) (U251): 93.1 µM
GI50 (HCT-116; HCT-116, HCT-116, five dose): 3.18 µM
GI50 (HCT-116; HCT-116, HCT-116, 5-dose assay): 3.18 µM
CC50 (HCT-116): 38.2 µM
IC (TGI) (HCT-116): 12.7 µM
Percent Growth (HT29; Log10 Concentration −4.0): −76%
Percent Growth (HT29; Log10 Concentration −5.0): 59%
Percent Growth (HT29; Log10 Concentration −6.0): 99%
Percent Growth (HT29; Log10 Concentration −7.0): 101%
Percent Growth (HT29; Log10 Concentration −8.0): 98%
GI50 (HT29): 11.7 µM
CC50 (HT29): 64.4 µM
IC (TGI) (HT29): 27.4 µM
GI50 (KM12; KM12): 23.9 µM
CC50 (KM12): > 100 µM
TGI (KM12; KM12, five dose): 7.00E−5
Percent Growth (KM12; KM12, Log10 Concentration −4.0): −17%
Percent Growth (KM12; KM12, Log10 Concentration −5.0): 90%
Percent Growth (KM12; KM12, Log10 Concentration −6.0): 96%
Percent Growth (KM12; KM12, Log10 Concentration −7.0): 95%
Percent Growth (KM12; KM12, Log10 Concentration −8.0): 96%
GI50 (786-0): 14.4 µM
CC50 (786-0): 60 µM
IC (TGI) (786-0): 29.4 µM
GI50 (A498): 20.4 µM
CC50 (A498): 95.2 µM
IC (TGI) (A498): 44.1 µM
GI50 (SN12C): 17.7 µM
CC50 (SN12C): 85.5 µM
IC (TGI) (SN12C): 39 µM
GI50 (MDA-MB-231/ATCC): 15.2 µM
CC50 (MDA-MB-231/ATCC): 61.6 µM
IC (TGI) (MDA-MB-231/ATCC): 30.6 µM
GI50 (OVCAR-5; OVCAR-5): 13.5 µM
CC50 (OVCAR-5): 59.3 µM
IC (TGI) (OVCAR-5): 28.3 µM
Percent Growth (OVCAR-5; OVCAR-5, Log10 Concentration −7.0): 9B
GI50 (NCI/ADR-RES): > 100 µM
CC50 (NCI/ADR-RES): > 100 µM
IC (TGI) (NCI/ADR-RES): > 100 µM
GI50 (PC-3): 15.7 µM
CC50 (PC-3): 70.1 µM
IC (TGI) (PC-3): 33.2 µM
GI50 (DU-145): 7.42 µM
CC50 (DU-145): 46.3 µM
IC (TGI) (DU-145): 20.2 µM
GI50 (HOP-62): 18 µM
CC50 (HOP-62): 62.3 µM
IC (TGI) (HOP-62): 33.5 µM
GI50 (NCI-H322M): 73.9 µM
CC50 (NCI-H322M): > 100 µM
IC (TGI) (NCI-H322M): > 100 µM
GI50 (NCI-H460): 22.3 µM
CC50 (NCI-H460): > 100 µM
IC (TGI) (NCI-H460): 51.4 µM
